Measured values reported in paper PMC12087874, “Biaryl Phosphates and Phosphonates as Selective Inhibitors of the Transcription Factor STAT4” (Angewandte Chemie (International Ed. in English), 2025).
Values joined by “and” are separate entries in the source; they are usually repeats but may differ in a detail not shown here. Equal entries are not always repeated. “Also recorded” adds a separate entry of the source.

Experiments:
[1] = biological target: T1, wild‐type STAT4 (Homo sapiens, UniProt Q14765); assay: Isothermal titration calorimetry (ITC), wild-type STAT4; type: binding; details: for Kd: ITC, 25 °C, one-site binding model, read-out: K d (ITC), wild-type STAT4
T1 construct: 6xHis; made in house
T1 sequence (Q14765 1-748): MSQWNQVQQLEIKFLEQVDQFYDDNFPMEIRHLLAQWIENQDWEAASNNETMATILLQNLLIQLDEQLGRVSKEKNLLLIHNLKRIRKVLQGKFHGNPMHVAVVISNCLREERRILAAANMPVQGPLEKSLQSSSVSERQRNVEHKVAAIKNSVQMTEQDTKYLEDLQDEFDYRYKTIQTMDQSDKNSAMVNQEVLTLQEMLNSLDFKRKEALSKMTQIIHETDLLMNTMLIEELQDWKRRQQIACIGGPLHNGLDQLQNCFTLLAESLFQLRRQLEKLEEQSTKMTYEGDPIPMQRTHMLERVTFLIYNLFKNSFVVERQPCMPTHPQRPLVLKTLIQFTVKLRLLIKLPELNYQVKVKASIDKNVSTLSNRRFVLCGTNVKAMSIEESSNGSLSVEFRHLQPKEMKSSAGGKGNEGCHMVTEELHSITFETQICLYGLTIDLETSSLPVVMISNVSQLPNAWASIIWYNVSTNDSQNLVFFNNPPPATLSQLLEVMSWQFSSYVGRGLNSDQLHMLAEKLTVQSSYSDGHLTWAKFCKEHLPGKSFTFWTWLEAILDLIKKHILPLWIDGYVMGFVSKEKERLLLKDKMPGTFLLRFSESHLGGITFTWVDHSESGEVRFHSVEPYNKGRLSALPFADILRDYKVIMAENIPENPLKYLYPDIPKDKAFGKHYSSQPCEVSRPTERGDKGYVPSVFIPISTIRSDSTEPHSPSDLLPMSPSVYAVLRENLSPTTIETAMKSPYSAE
Description: Isothermal Titration Calorimetry
Purification of 6xHis-tagged proteins for ITC experiments was carried out by affinity chromatography on His-Bind resin. The eluting fractions were analyzed by SDS -PAGE.
Proteins were dialyzed against ITC buffer (10 mM Tris pH 8.0, 50 mM NaCl) using dialysi s tubing with a 50 kDa cut-off. ITC experiments were performed using a VP-ITC Micro Calorimeter (MicroCal). 6m was dissolved as a 100 mM stock in DMSO and diluted 1/1000 in ITC buffer (Tris pH 8.0 and 50 mM NaCl), resulting in a final concentration of 100 µM. 8k was dissolved as a 5 mM stock in ITC buffer and diluted 1/25 in ITC buffer with DMSO, resulting in a final concentration of 200 µM 8k. DMSO was added to a final concentration of 2% (v/v). To avoid errors caused by the detection of dilution heat, 0.1 % (v/v) DMSO for 6m or 2% (v/v) DMSO for 8k experiments was added to the buffers containing the proteins and to the reference buffer. Proteins were degassed before the experiments using a ThermoVac sample degassing station. The following conditions were used for ITC experiments: 10 µM STAT4 protein for 6m or 20 µM STAT4 protein for 8k experiments, 100 µM 6m or 200 µM 8k, 28 injections with 10 µL single injection volume, 250 s initial delay, 500 s spacing between injections, 250 µcal/s reference power, 300 rpm stirring at 25 °C for 6m or 220 rpm stirring at 25 °C for 8k. Data analysis was performed using NITPIC[1, 5] and SEDPHAT,[6] applying a low-noise integration approach. Data were fitted using a one-site binding model. Figures were generated using GUSSI.[7] Experiments were carried out in quadruplicate for 6m and triplicate

[2] = biological target: T2, STAT4 (Homo sapiens, UniProt Q14765); assay: CETSA of STAT4 in lysates from NK-92 cells; type: binding; design: utilizing cellular lysates from the STAT4‐expressing natural killer cell line NK‐92; endogenous in cells; host or cells: NK-92 (DSMZ); details: 100 µM; for ΔT agg of STAT4 / T agg of STAT4 (average): CETSA, NK-92 cell lysates; for ΔT agg of STAT4: versus DMSO control; for T agg of STAT4 (average): DMSO control 48.7 ± 0.5 °C, n = 3; for Tagg (STAT4) 3 independent experiments: individual CETSA experiments, in °C (unit assumed)
T2 sequence (Q14765 1-748): T1 sequence (Q14765 1-748)
Description: (§1) NK-92 cells (DSMZ) were cultured in α-MEM containing 12.5% fetal bovine serum (FBS), 12.5% horse serum, 2 mM L-glutamine, penicillin/streptomycin and 50 U/ml IL -2. […]
NK-92 cell lysates were prepared for CETSA experiments by washing cultured cells once with TBS and resuspending in TBS supplemented with Halt Protease In hibitor Cocktail, EDTA-free (Fisher Scientific) at 3 x 10^6 cells per 100 µl. […]
CETSA experiments were performed essentially using the published protocol. Briefly, NK-92 cell lysates were incubated with test compound or DMSO for 15 min at room temperature (final DMSO concentration 2%). During this time, the treated lysate was divided into 10x 50 µl aliquots in 0.2 ml reaction tubes. Samples were then heated to the designated temperatures in a Veriti Pro Thermocycler (Thermo Fishe r Scientific) for 3 min, followed by 3 min incubation at room temperature, and then placed on ice. The samples were transferred to 1.5 ml tubes before centrifugation at 20,000 g for 20 min at 4 °C, to remove aggregated proteins. The soluble fractions were subsequently analyzed by Western blotting.
(§2) The components of cell lysates from treated cells, or heat-treated lysates from CETSA, were separated by SDS-PAGE (10%), transferred to nitrocellulose membrane (Bio-Rad) and detected using monoclonal rabbit primary antibodies (Cell Signaling), α-rabbit-HRP secondary antibody (Dako) and Western Lightning Plus chemiluminescence reagent (Perkin Elmer).
(§3) Bands were visualized using an ImageQuant system (GE Healthcare) and quantitated using ImageJ software (NIH). […]
(§4) The sitting drop was composed of 0.1 µl protein solution and 0.1 µl reservoir solution. Plates were stored at 19°C in a protein […]
(§5) In the first set of experiments, w e tried to crystallize STAT4 as a SUMO -STAT4 fusion protein […]
(§6) was cleaved off as described above.
(§7) Screening for crystallization conditions for tag-free STAT4 was performed both in the absence or presence of 1 equivalent of 6m or 6h. Since the chosen protein concentration of 3.6 mg/ml appeared to be too low, screening was repeated with a higher concentration of 6.4 mg/ml STAT4 for all conditions (corresponding to 100 µM 6m). Both the SUMO-STAT4 and the tag-free STAT4 preferentially precipitated under conditions containing polyethylene glycol. In one set of experiments, we also screened for conditions in the presence of the high-affinity peptide GY(PO3H2)LPQNID adapted from the IL-12 receptor. However, none of the conditions resulted in the growth of STAT4 crystals (Table S4).

[3] = biological target: T2, STAT4; assay: IL-12-induced STAT4 Tyr693 phosphorylation in NK-92 cells (Western blot); type: cell-based; design: utilizing cellular lysates from the STAT4‐expressing natural killer cell line NK‐92; endogenous in cells; host or cells: NK-92 (DSMZ); details: treatment for 2 h (Figure S4)
Description: as §1, §2, §3, §4, §5, §6, §7

Row | dissociation constant (ITC) relative to IC50 value in FP assays ([1]; Kd (ITC) higher than IC50 (FP), STAT4) [fold] | Compound | Kd [1] [µM] | ΔT agg of STAT4 [2] [°C] | T agg of STAT4 (average) [2] | Tagg (STAT4) 3 independent experiments [2] | inhibition of IL‐12‐induced STAT4 Tyr693 phosphorylation [3]
1 | – | O=P(O)(O)Oc1ccc(-c2ccc3ccccc3c2)cc1F [Compound 6m] | 1.3 ± 0.3 | – | – | – | –
2 | – | O=P(O)(O)C(F)(F)c1ccc(-c2ccc3ccccc3c2)cc1F [Compound 8a] | – | 1.1 | 49.8 ± 0.1 °C and 49.8 °C | 49.9 and 49.7 and 49.8 | –
3 | 2 | Cc1cc(-c2ccc(C(F)(F)P(=O)(O)O)c(F)c2)cs1 [Compound 8k] | 7.1 ± 1.1 | 1.3 | 50.0 ± 0.5 °C and 50.0 °C | 50.5 and 49.6 and 49.8 | unable to inhibit; also recorded: does not inhibit
